Data on one molecule can be found in patent EP4722228A1, “NEW COMPOUND TARGETING MUSK AND USE THEREOF” (The University of Tokyo, priority 2023, dated 2024).

Bridge positions count the residues as written; N and C are the ends. Square brackets hold non-standard residues; d marks the D form. Peptide text beside a SMILES is read from it. I, II: the chains in the order shown. * marks the point of attachment. Palmitoyl = CCCCCCCCCCCCCCCC(=O)*; PEG3 = NCCOCCOCCOCCC(=O)O; Dap = NC[C@H](N)C(=O)O

The test system of assay [1] is rat PTMG model using anti-acetylcholine receptor monoclonal antibody (mAb35). Description: Movement score in rat PTMG model. The format is in vivo. The procedure:
(§1) 5-week-old female rats (n=20, LEW/CrlCrlj, 4 weeks old when carried in, Jackson Laboratory Japan) were divided into four groups (Group A, Group B, Group C, and Group D) using body weight measurement results as indexes. Vehicle was administered to Group A, and the test compound MuSK7-pal dissolved in vehicle was administered intravenously to each of Group B (3 mg/kg), Group C (2 mg/kg), and Group D (1 mg/kg) (Day 0). Two hours after intravenous administration, an anti-nicotinic acetylcholine receptor monoclonal antibody (mAb35, National Hospital Organization Nagasaki Kawatana Medical Center) dissolved in PBS (pH 7.4) as a drug for inducing the pathology of myasthenia gravis was administered intraperitoneally to all animals at 200 µg/rat (Day 0). The vehicle, which was a solvent of the compound, was phosphate-buffered saline (PBS) at pH 7.4 containing 20% hydroxypropyl-β-cyclodextrin and 0.02% polysorbate 80 (the same applies to Example 3(2)).
The movement of the animals was evaluated at each time point of 9, 24, 33, 48, 57, and 72 hours (hr) after antibody administration according to six-level evaluation criteria (Score). The evaluation criteria were as follows. • 0: Normal • 1: Reduced grip strength in forelimbs and hindlimbs • 2: Incomplete paralysis of hindlimbs • 3: Complete paralysis of hindlimbs and inability to stand • 4: Moribund • 5: Death
The average score of the rats in each group was calculated. In addition, in a cage in which a rat determined to have a score of 2 or higher was present, crushed transport agar (manufactured by Oriental Yeast Co., Ltd.) and pellet feed were provided.
as §1, with “(n=24,” for “(n=20,”, “(0.5” for “(3”, “(0.25” for “(2”, “(0.1” for “(1”, “0).” for “0). The vehicle, which was a solvent of the compound, was phosphate-buffered saline (PBS) at pH 7.4 containing 20% hydroxypropyl-β-cyclodextrin and 0.02% polysorbate 80 (the same applies to Example 3(2)).”
The movement of the animals was evaluated at each time point of 9, 24, 33, 48, 57, and 72 hours (hr) after antibody administration according to six-level evaluation criteria (Score). The evaluation criteria were the same as those in (1) B above.
5-week-old female rats (LEW/CrlCrlj, 4 weeks old when carried in, Jackson Laboratory Japan) were divided into three groups (Group A, Group B, and Group C) using body weight measurement results as indexes. The test compound (tetramer of Ub012 (EAAAK)3) dissolved in vehicle was administered intravenously to Group A (5 mg/kg) (n=5), the test compound (tetramer of Ub012(ΔGG) (EAAAK)3) dissolved in vehicle was administered intravenously to Group B (5 mg/kg) (n=5), and vehicle was administered intravenously to Group C (n=5), respectively (Day 0). Two hours after intravenous administration, an anti-nicotinic acetylcholine receptor monoclonal antibody (mAb35, National Hospital Organization Nagasaki Kawatana Medical Center) dissolved in PBS (pH 7.4) as a drug for inducing the pathology of myasthenia gravis was administered intraperitoneally to all animals at 200 µg/rat (Day 0).
The movement of the animals was evaluated at each time point of 9, 24, 33, 48, 57, and 72 hours (hr) after antibody administration according to six-level evaluation criteria (Score). The evaluation criteria were the same as those in Example 3(1) B.

For a further assay, the target named is T1, mouse MuSK (Mus musculus, UniProt Q61006).
T1 construct: made in house
T1 sequence (Q61006 22-494 limits assumed): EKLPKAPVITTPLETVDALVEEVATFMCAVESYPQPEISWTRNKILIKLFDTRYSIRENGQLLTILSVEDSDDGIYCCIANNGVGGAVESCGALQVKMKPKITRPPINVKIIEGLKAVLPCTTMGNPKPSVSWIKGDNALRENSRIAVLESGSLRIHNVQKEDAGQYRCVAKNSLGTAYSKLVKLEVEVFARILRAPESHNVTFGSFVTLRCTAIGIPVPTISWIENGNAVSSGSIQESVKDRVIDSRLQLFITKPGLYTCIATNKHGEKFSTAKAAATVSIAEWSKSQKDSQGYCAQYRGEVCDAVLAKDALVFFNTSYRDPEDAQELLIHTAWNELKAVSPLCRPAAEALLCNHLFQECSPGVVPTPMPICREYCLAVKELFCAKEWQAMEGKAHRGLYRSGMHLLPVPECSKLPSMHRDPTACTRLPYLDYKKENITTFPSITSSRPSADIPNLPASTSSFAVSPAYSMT
Description: SPR binding activity test to mouse MuSK (Biacore). The conditions noted are these: Table 5. How it is done:
The strength of binding between MuSK and the cyclic peptides was evaluated by quantitatively measuring the binding kinetics (binding affinity (dissociation constant) KD) of the cyclic peptides to MuSK immobilized on a sensor chip via an Fc tag, using surface plasmon resonance (SPR).
According to the standard immobilization protocol provided by the manufacturer, Fc-tagged human/mouse/rat MuSK was immobilized on a Protein G chip or a Protein A chip (Cytiva). A running buffer for the monomer/dimer peptides contained 0.010 M phosphate, 0.14 M NaCl, 0.0027 M KCl, 0.05% (v/v) Tween 20, and 0.1% (v/v) DMSO. A running buffer for the monomer/dimer U-bodies contained 0.010 M phosphate, 0.14 M NaCl, 0.0027 M KCl, and 0.05% (v/v) Tween 20. A series of concentrations of each monomer peptide, dimer peptide, monomer U-body, and dimer U-body was injected as analytes. A 1:1 binding fitting analysis was applied using Biacore evaluation software, and ka, kd, and KD values were determined.
Fc-tagged human MuSK was prepared according to the procedure described in Example 1(1). In addition, Fc-tagged mouse MuSK was used by expressing a nucleotide sequence encoding the Fc-tagged mouse MuSK extracellular domain (SEQ ID NO: 34). […]
The affinity of the U-bodies and their complexes obtained as described above for MuSK of human, rat, and mouse was evaluated (binding activity test). […]
Background: SPR reads the build-up and loss of mass on a sensor chip optically.

Take `CCCCCCCCCCCCCCCC(=O)NCCCC[C@H](NC(=O)[C@H](CNC(=O)CCOCCOCCOCCNC(=O)CNC(=O)[C@@H]1CSCC(=O)N[C@H](Cc2ccc(O)cc2)C(=O)N2CCC[C@H]2C(=O)N[C@@H](CO)C(=O)N[C@@H](Cc2ccc(O)cc2)C(=O)N[C@@H](Cc2c[nH]cn2)C(=O)N[C@@H]([C@@H](C)O)C(=O)N[C@@H](CC(N)=O)C(=O)N[C@@H](C(C)C)C(=O)N[C@@H](C(C)C)C(=O)N[C@@H](C)C(=O)N[C@@H](CO)C(=O)N[C@@H](CC(C)C)C(=O)N[C@@H](CCCCN)C(=O)N[C@@H](CCCNC(=N)N)C(=O)N1)NC(=O)CCOCCOCCOCCNC(=O)CNC(=O)[C@@H]1CSCC(=O)N[C@H](Cc2ccc(O)cc2)C(=O)N2CCC[C@H]2C(=O)N[C@@H](CO)C(=O)N[C@@H](Cc2ccc(O)cc2)C(=O)N[C@@H](Cc2c[nH]cn2)C(=O)N[C@@H]([C@@H](C)O)C(=O)N[C@@H](CC(N)=O)C(=O)N[C@@H](C(C)C)C(=O)N[C@@H](C(C)C)C(=O)N[C@@H](C)C(=O)N[C@@H](CO)C(=O)N[C@@H](CC(C)C)C(=O)N[C@@H](CCCCN)C(=O)N[C@@H](CCCNC(=N)N)C(=O)N1)C(N)=O` [MuSK7-pal] (I: {CH2CO}-[dY]PSYHTNVVASLKRCG[PEG3][Dap]K(Palmitoyl)-NH2 / II: {CH2CO}-[dY]PSYHTNVVASLKRCG[PEG3]; amide I:18-II:C; thioether I:N-I:15, II:N-II:15): the movement score entry in assay [1] (0.1 mg/kg intravenously (Group D, Example 3(2)), not significant vs Group A) was “the scores remained low compared to the control group”; in assay [1] (0.25 mg/kg intravenously (Group C, Example 3(2)), Dunn's test) it was “significantly lower than those in Group A at all measurement points except at 9 hr and at 57 hr”; in assay [1] (0.5 mg/kg intravenously (Group B, Example 3(2)), Dunn's test), “significantly lower than those in Group A at all measurement points after 24 hr”; in assay [1] (1 mg/kg intravenously (Group D, Example 3(1)), all individuals, all measurement points, score 0-5), 0; in assay [1] (2 mg/kg intravenously (Group C, Example 3(1)), 9 to 72 hr, score 0-5) it was “the scores remained low at all measurement points”; in assay [1] (3 mg/kg intravenously (Group B, Example 3(1)), 9 to 72 hr, score 0-5), “the scores remained low at all measurement points”. Besides, binding on mouse MuSK was put at a Kd of 8.8 nM.

What is called Kd is the equilibrium constant for the complex coming apart. Higher therefore signals lower affinity.
